Assay results: patent publication US4966900A, “Cephalosporin β-lactam compound and medicinal composition” (priority 1986, dated 1990)
Structures can show the parent of a compound that is named as a salt. Where two headings read alike, the source gives them in different places.

Tests used:
K. pneumoniae 4at521 = experiment: MIC; settings: Klebsiella pneumoniae, 4AT521
E. cloacae 5D63-2 = experiment: MIC; settings: Enterobacter cloacae, 5D632
E. cloacae 908RN = experiment: MIC; settings: Enterobacter cloacae
C. freundii 1R526 = experiment: MIC; settings: Citrobacter freundii, 1R526
S. aureus Smith = experiment: MIC; settings: Staphylococcus aureus, Table 2, sodium salt
P. cepacia OF189 = experiment: MIC; settings: Burkholderia cepacia, OF189, P. cepacia OF189; Table 2, sodium salt
P. vulgaris GN7919 = experiment: MIC; settings: Proteus vulgaris, GN7919
P. maltophilia OF247 = experiment: MIC; settings: Stenotrophomonas maltophilia, Table 2, sodium salt
P. aeruginosa 4au542 = experiment: MIC; settings: Pseudomonas aeruginosa, 4AU542, P. aeruginosa 4au542; Table 2, sodium salt
C. freundii 1R524 = experiment: MIC; settings: Citrobacter freundii, 1R524
E. cloacae 1V25 = experiment: MIC; settings: Enterobacter cloacae
E. cloacae 5D52-2 = experiment: MIC; settings: Enterobacter cloacae, 5D522
C. freundii 1R527 = experiment: MIC; settings: Citrobacter freundii, 1R527
[1] = central and tissue distribution volume in Macaco (parenteral, HPLC); type: in vivo; settings: monkey, blood, 20 mg/kg, 20 mg/kg parenteral, sodium salt
Description: 20 mg/kg of the compound obtained in Example 1 was administered parenterally to Macaco and a central distribution volume and a tissue distribution volume were calculated by their concentrations in blood measured with time.
The concentration of the compound was measured according to HPLC method. Microbondapack C18 (trade name, produced by Waters Co.) was used as a column and 8% acetonitrile-2% tetrahydrofuran-0.2% phosphoric acid was used as a solvent.

E. cloacae 1Y247 = experiment: MIC; type: cell-based; settings: Enterobacter cloacae, Table 3, sodium salt, read-out: MIC
Description: The minimum inhibition concentrations (MIC) of the compounds obtained in the respective examples described above were measured according to the standard method of Japanese Chemotherapy Association.

C. freundii 1U692 = experiment: MIC; settings: Citrobacter freundii, 1U692
C. freundii 1R523 = experiment: MIC; settings: Citrobacter freundii, 1R523
E. coli ML4707 = experiment: MIC; settings: Escherichia coli, ML4707, E. coli ML4707; Table 2, sodium salt
A. xylosoxidans OF1001 = experiment: MIC; type: cell-based; settings: Achromobacter xylosoxidans, Table 2, sodium salt
Description: (§1) The minimum inhibition concentrations (MIC) of the compounds obtained in Example 1 and Example 2 were measured according to the standard method of Japanese Chemotherapy Association.

A. calcoaceticu OF1063 = experiment: MIC; type: cell-based; settings: Table 2, sodium salt
Description: as §1

E. coli NIHJ JC-2 = experiment: MIC; type: cell-based; settings: Escherichia coli, NIHJJC2, Table 2, sodium salt
Description: as §1

P. aeruginosa GN10362 = experiment: MIC; settings: Pseudomonas aeruginosa, GN10362
C. freundii 1U589 = experiment: MIC; settings: Citrobacter freundii, 1U589
E. colacae GN7471 = experiment: MIC; settings: Table 2, sodium salt
C. freundii GN7391 = experiment: MIC; settings: Citrobacter freundii, GN7391, C. freundii GN7391
C. freundii 5D60-1 = experiment: MIC; settings: Citrobacter freundii, 5D601
P. aeruginosa 5D58-1 = experiment: MIC; settings: Pseudomonas aeruginosa, 5D581, P. aeruginosa 5D58-1; Table 2, sodium salt
E. coli GN5482 = experiment: MIC; settings: Escherichia coli, GN5482, E. coli GN5482; Table 2, sodium salt
S. marcescens GN10857 = experiment: MIC; settings: Serratia marcescens, GN10857, S. marcescens GN10857; Table 2, sodium salt

CC(C)(ON=C(C(=O)NC1C(=O)N2C(C(=O)O)=C(COC(N)=O)CSC12)c1csc(N)n1)C(=O)NNC(=O)c1ccc(O)c(O)c1 (centres unmarked) [Example 1, 7-{2-[2-amino-1,3-thiazol-4-yl]-2-[1-(3-(3,4-dihydroxybenzoyl)carbazoyl)-1-methylethoxyimino]acetamide}-3-carbamoyloxymethyl-3-cephem-4-carboxylic acid.hydrochloride]
MIC (K. pneumoniae 4at521): 0.012 µg/mL | MIC (E. cloacae 5D63-2): 50 µg/mL | MIC (E. cloacae 908RN; E. cloacae 908RN, Table 3, sodium salt): > 100 µg/mL | MIC (E. cloacae 908RN; E. colacae 908RN, Table 2, sodium salt): > 100 µg/mL | MIC (C. freundii 1R526): 25 µg/mL | MIC (S. aureus Smith): 6.26 µg/mL | MIC (P. cepacia OF189): 0.025 µg/mL | MIC (P. vulgaris GN7919): 3.13 µg/mL | MIC (P. maltophilia OF247): 0.78 µg/mL | MIC (P. aeruginosa 4au542): 0.05 µg/mL | MIC (C. freundii 1R524): 12.5 µg/mL | MIC (E. cloacae 1V25): 50 µg/mL | MIC (E. cloacae 5D52-2): 25 µg/mL | MIC (C. freundii 1R527): 12.5 µg/mL | Vd ([1]; read-out: Central distribution volume): 0.144 L/kg | Vd ([1]; read-out: Tissue distribution volume): 0.295 L/kg | MIC (E. cloacae 1Y247): > 100 µg/mL | MIC (C. freundii 1U692): 25 µg/mL | MIC (C. freundii 1R523): 25 µg/mL | MIC (E. coli ML4707): 0.025 µg/mL | MIC (A. xylosoxidans OF1001): 1.56 µg/mL | MIC (A. calcoaceticu OF1063): 3.13 µg/mL | MIC (E. coli NIHJ JC-2): 0.1 µg/mL | MIC (P. aeruginosa GN10362): 0.05 µg/mL | MIC (C. freundii 1U589): 12.5 µg/mL | MIC (E. colacae GN7471): 25 µg/mL | MIC (C. freundii GN7391; Table 2, sodium salt): > 100 µg/mL | MIC (C. freundii GN7391; Table 3, sodium salt): > 100 µg/mL | MIC (C. freundii 5D60-1): 50 µg/mL | MIC (P. aeruginosa 5D58-1): 0.2 µg/mL | MIC (E. coli GN5482): 1.56 µg/mL | MIC (S. marcescens GN10857): 0.78 µg/mL
